From paper PMC4428838, “Optimization of Invasion-Specific Effects of Betulin Derivatives on Prostate Cancer Cells through Lead Development” (PLoS ONE, 2015)

Experiments:
[1] = tested on: phosphorylation levels of 43 kinases in PC-3 cells; test: Phospho-kinase antibody array on lysates of 3D cultures; assay type: cell-based, human; settings: for p70 S6 kinase (T389), p53 (S392) and PYK2 (Y402) phosphorylation: 6-d exposure; for phosphorylation levels of STAT3 (Y727), c-Jun (S63), eNOS (S1177) and PLC-γ1 (Y783): both short (4 h, 1 μM) and long-term (6 d, 300 nM) exposures
Method: In order to elucidate possible mechanism of action for our betulin derivatives, we used a phospho-kinase array that quantitatively detects the phosphorylation levels of 43 kinases in cell lysates (Fig 7). Lysates were extracted from 3D cell cultures of PC-3 cells, and exposed to betulin-derived compounds for short (4 hours) or long-term (6 days) periods. For these studies, we selected the two representative derivatives 5 and 20 as the most specific, least cytotoxic inhibitors of cell invasion. […] The kinase arrays were also quantified by image densitometry (Fig 7A). […] The reduction of AKT activity by both compounds was validated by western blotting, using an independent, p-AKT specific antibody (Fig 7B). The short treatments caused only modest changes with a maximum reduction of protein phosphorylation by 2-fold (20: GSK-3α/β S21/S9 and STAT3 Y705). Phosphorylation levels of only three kinases were altered more than 2-fold in the long-term exposures, namely AKT (T308), p53 (S46) and eNOS (S1177), caused by nanomolar concentrations of compound 5. Compound 20 had much less dramatic effects on kinase phosphorylation when compared to compound 5, despite its generally more pronounced anti-invasive effects.
Fig 7 Mechanisms of action. PC-3 spheroids were exposed to two representative betulin derivatives, 5 and 20, for 4 h (at 1 μM) and 6 days (at 0.3 μM). A) Computational quantification of signal intensities from the kinase arrays, aligned by fold changes observed (left to right). B) Western blot of total and phospho-Akt (S473) shown for both short and long-term exposure to 20 and 5.
In order to generate sufficient protein material for antibody arrays, we resorted to 6-well Millicell hanging cell culture inserts (Merck Millipore, Billerica, MA, USA). Membranes were pre-coated with 4 mg/mL GFR Matrigel (Corning Inc., New York, NY, USA) and incubated at 37°C for 1 h to prevent attachment to the membrane. GFR Matrigel (2 mg/mL) was prepared and 100,000 cells were added in. The Matrigel-cell suspension was transferred into the coated wells and incubated overnight at 37°C. Fresh medium was added the following day under the insert. After four days in culture fresh media with compounds 20 and 5 at 0.3 μM concentration compounds were added for six days long-term exposure. On day 10, the same compounds were added in fresh medium at 1 μM concentration for the 4h short-term exposure. DMSO was used as a negative control in both exposures. Cells were harvested by first washing the inserts with ice cold PBS, then incubating the isolated ECM slabs in ice cold 5 mM ethylenediaminetetraacetic acid (EDTA) in PBS on ice on a table top rocker for 45 min to dissolve the ECM, and finally by washing the cell pellets once with PBS before lysing them in Lysis Buffer 6 (R&D Systems, Minneapolis, MN, USA). The antibody arrays used were from the Human Phospho-Kinase Array Kit (R&D Systems, Minneapolis, MN, USA). The samples were assayed according to manufacturer’s instructions. Exposed radiograms were scanned with a tabletop scanner and spot intensities quantified using Array-Pro Analyzer (v4.5.1.73) software.

in vitro = assay type: cell-based; settings: human
Method: To rule out that cytotoxic and antimitotic effects were misinterpreted as anti-invasive, we tested compounds 4, 5, 6, 19 and 20 for inhibition of proliferation and induction of cell death in a 2D monolayer culture (summarized in Fig 6). […] LNCaP cells were more sensitive, with growth inhibition/cytotoxicity starting at 3 μM. The effects on non-transformed, apoptosis-sensitive Ep156T cells were strongest. Here, cytotoxic effects were typically observed already at 0.3–1 μM. […] We further calculated EC50 values for proliferation, apoptosis and cell death for each compound, using the PerkinElmer Harmony software (method validation shown in S7 Fig). The only assay that produced results consistent with those of the betulin derivatives tested in the 2D cell culture model was the proliferation assay (Table 1).
Fig 6 Cytotoxicity tests performed in 2D monolayer culture. A) Cell proliferation/cell number, B) programmed cell death (apoptosis), and C) number of dead cells were assessed by conventional assays, combined with high-content microscopy (Operetta). […] Proliferation was measured as the total number of nuclei (= cells), apoptosis as ratio of caspase-3 positive versus all cells, and cell death as ethidium homodimer-2 positive nuclei versus all cells.
Cells were transferred into CellCarrier 384-well plates (PerkinElmer, Waltham, MA, USA) at a density of 1250 cells/well, using Multidrop dispenser (ThermoFisher Scientific, Waltham, MA, USA). After overnight incubation at 37°C experimental, compounds were added with an ATS Acoustic Transfer System (EDC Biosystems, Fremont, CA, USA). For Ep156T cells the protocol was done in reverse with compounds dispensed before seeding of cells. Fluorescent markers were dispensed in culture medium using ATS system after 72-h compound exposure. Nuclei were stained with cell-permeable Hoechst 33342 (Molecular Probes, Eugene, OR, USA), dead cells with ethidium homodimer-2 (Invitrogen, Carlsbad, CA, USA) and apoptotic cells with NucView caspase-3 detection reagent (Essen Bioscience, Ann Arbor, MI, USA). Cells were imaged with Operetta high-content imager (PerkinElmer, Waltham, MA, USA). Proliferation was measured from the number of nuclei (cells), cell death and apoptosis from positive cells/total cells ratio using Harmony image analysis software (PerkinElmer, Waltham, MA, USA). EC50 values were also assessed with the Harmony software.

Row | SMILES | AMPKα1 (T174) phosphorylation [1] | phosphorylation of mTOR (S2448), Fyn (Y420) and Src (Y419) [1] | p70 S6 kinase (T389), p53 (S392) and PYK2 (Y402) phosphorylation ([1]; 300 nM) | Akt (S473) phosphorylation ([1]; 4 h at 1 μM vs 6 d at 300 nM) | phosphorylation levels of STAT3 (Y727), c-Jun (S63), eNOS (S1177) and PLC-γ1 (Y783) [1] | phosphorylation of Hck (Y411), pan-JNK, GSK-3α/β (S21/S9), STAT3 (Y705) and WNK1 (T60) sites ([1]; compound-specific effects) | maximum reduction of protein phosphorylation (GSK-3α/β S21/S9 and STAT3 Y705) ([1]; short treatments, 4 h, 1 μM) [fold] | p53 (S15) phosphorylation ([1]; short-term exposure, 4 h, 1 μM) | EC50 at 72 h (in vitro) [µM] | phosphorylation of p53 sites S46 and S392 [1] | alteration of phosphorylation levels of AKT (T308), p53 (S46) and eNOS (S1177) ([1]; long-term exposures, 6 d, nanomolar concentrations) | Akt (T308) phosphorylation ([1]; long-term treatment, 6 d, 300 nM) | specific changes in kinase activity ([1]; short-term exposure, 4 h, 1 μM)
1 | C=C(C)[C@@H]1CC[C@]2(C(=O)O)CC[C@]3(C)C(CCC4[C@@]5(C)Cc6ncccc6C(C)(C)C5CC[C@]43C)C12 (stereo partly drawn) [Compound 20] | increased | increased | reduced | only inhibited by the 6-d exposure | clearly decreased | differential phosphorylation | 2 | reduced | 67 | – | – | – | –
2 | C=C(C)[C@@H]1CC[C@]2(C(=O)O)CC[C@]3(C)C(CCC4[C@@]5(C)Cc6cnoc6C(C)(C)C5CC[C@]43C)C12 (stereo partly drawn) [Compound 5] | increased | – | reduced | – | clearly decreased | – | – | reduced | 10 | consistently decreased | more than 2 fold | abolished almost entirely | did not cause any specific changes in kinase activity
